# Measurements taken from PubChem BioAssay AID2060328 (Molecular Pharmacology Branch, DTP, NCI, 2025).
# Tested on: MDA-MB-231 multicell spheroids, viability (%T/C)
# Assay: Anticancer human tumor MDA-MB-231 cell line growth inhibition [IpAb];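 also: viability read after seven days of drug exposure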;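 as to viability, T/C: 100% = DMSO vehicle control viability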
# Conditions: for IC50: curve of first compound; for viability, T/C: stronger effect = lower value
# In short: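 Combinations with ipatasertib or abemaciclib were tested on tumour spheroids holding HUVEC (25%) and MSC (15%) alongside 60% malignant cells. Top concentration was at or near clinical Cmax (10 microM if undefined), descending in half-log steps.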
# [1] = second compound 0.01 µM, first compound 0.0316 µM
# [2] = second compound 0.01 µM, first compound 0.1 µM
# [3] = second compound 0.0316 µM, first compound 0.0316 µM
# [4] = second compound 0.0316 µM, first compound 0.1 µM
# [5] = second compound 0.1 µM, first compound 0.0316 µM
# [6] = second compound 0.1 µM, first compound 0.1 µM
# [7] = second compound 0.316 µM, first compound 0.0316 µM
# [8] = second compound 0.316 µM, first compound 0.1 µM
# [9] = second compound 1 µM, first compound 0.0316 µM
# [10] = second compound 1 µM, first compound 0.1 µM
structure (smiles),measurement,setting,value
Cn1ncc(Cl)c1-c1cc(C(=O)NC(CN)Cc2cccc(F)c2)sc1Cl (stereo not given) + CCN1CCN(Cc2ccc(Nc3ncc(F)c(-c4cc(F)c5nc(C)n(C(C)C)c5c4)n3)nc2)CC1,IC50,second compound 0.01 µM,864 nM
same,IC50,second compound 0.0316 µM,378 nM
same,IC50,second compound 0.1 µM,76.6 nM
same,IC50,second compound 0.316 µM,< 31.6 nM
same,IC50,second compound 1 µM,< 31.6 nM
same,"viability, T/C",[1],87.3%
same,"viability, T/C",[2],77.6%
same,"viability, T/C","second compound 0.01 µM, first compound 0.316 µM",66.7%
same,"viability, T/C","second compound 0.01 µM, first compound 1 µM",45.7%
same,"viability, T/C","second compound 0.01 µM, first compound 3.16 µM",27.5%
same,"viability, T/C","second compound 0.01 µM, first compound 10 µM",0.12%
same,"viability, T/C",[3],73.4%
same,"viability, T/C",[4],64.8%
same,"viability, T/C","second compound 0.0316 µM, first compound 0.316 µM",51.9%
same,"viability, T/C","second compound 0.0316 µM, first compound 1 µM",36.4%
same,"viability, T/C","second compound 0.0316 µM, first compound 3.16 µM",23%
same,"viability, T/C","second compound 0.0316 µM, first compound 10 µM",0.11%
same,"viability, T/C",[5],52.6%
same,"viability, T/C",[6],52%
same,"viability, T/C","second compound 0.1 µM, first compound 0.316 µM",40%
same,"viability, T/C","second compound 0.1 µM, first compound 1 µM",30.2%
same,"viability, T/C","second compound 0.1 µM, first compound 3.16 µM",20.4%
same,"viability, T/C","second compound 0.1 µM, first compound 10 µM",0.87%
same,"viability, T/C",[7],43.4%
same,"viability, T/C",[8],42.7%
same,"viability, T/C","second compound 0.316 µM, first compound 0.316 µM",32.9%
same,"viability, T/C","second compound 0.316 µM, first compound 1 µM",30.5%
same,"viability, T/C","second compound 0.316 µM, first compound 3.16 µM",26%
same,"viability, T/C","second compound 0.316 µM, first compound 10 µM",0.53%
same,"viability, T/C",[9],44.2%
same,"viability, T/C",[10],46.3%
same,"viability, T/C","second compound 1 µM, first compound 0.316 µM",43.2%
same,"viability, T/C","second compound 1 µM, first compound 1 µM",38.7%
same,"viability, T/C","second compound 1 µM, first compound 3.16 µM",43.6%
same,"viability, T/C","second compound 1 µM, first compound 10 µM",0.79%
Cn1ncnc1[C@H]1c2n[nH]c(=O)c3cc(F)cc(c23)N[C@@H]1c1ccc(F)cc1 + CCN1CCN(Cc2ccc(Nc3ncc(F)c(-c4cc(F)c5nc(C)n(C(C)C)c5c4)n3)nc2)CC1,IC50,second compound 0.01 µM,> 100 nM
same,IC50,second compound 0.0316 µM,> 100 nM
same,IC50,second compound 0.1 µM,37.6 nM
same,IC50,second compound 0.316 µM,< 0.316 nM
same,IC50,second compound 1 µM,< 0.316 nM
same,"viability, T/C","second compound 0.01 µM, first compound 0.000316 µM",86.5%
same,"viability, T/C","second compound 0.01 µM, first compound 0.001 µM",85.5%
same,"viability, T/C","second compound 0.01 µM, first compound 0.00316 µM",79.6%
same,"viability, T/C","second compound 0.01 µM, first compound 0.01 µM",70.9%
same,"viability, T/C",[1],69.2%
same,"viability, T/C",[2],65.9%
same,"viability, T/C","second compound 0.0316 µM, first compound 0.000316 µM",74.8%
same,"viability, T/C","second compound 0.0316 µM, first compound 0.001 µM",72.1%
same,"viability, T/C","second compound 0.0316 µM, first compound 0.00316 µM",65.2%
same,"viability, T/C","second compound 0.0316 µM, first compound 0.01 µM",60%
same,"viability, T/C",[3],59.1%
same,"viability, T/C",[4],55%
same,"viability, T/C","second compound 0.1 µM, first compound 0.000316 µM",58.8%
same,"viability, T/C","second compound 0.1 µM, first compound 0.001 µM",56.4%
same,"viability, T/C","second compound 0.1 µM, first compound 0.00316 µM",51.5%
same,"viability, T/C","second compound 0.1 µM, first compound 0.01 µM",51.1%
same,"viability, T/C",[5],51.5%
same,"viability, T/C",[6],48.7%
same,"viability, T/C","second compound 0.316 µM, first compound 0.000316 µM",46.5%
same,"viability, T/C","second compound 0.316 µM, first compound 0.001 µM",46.6%
same,"viability, T/C","second compound 0.316 µM, first compound 0.00316 µM",43.9%
same,"viability, T/C","second compound 0.316 µM, first compound 0.01 µM",43.3%
same,"viability, T/C",[7],42.9%
same,"viability, T/C",[8],40.4%
same,"viability, T/C","second compound 1 µM, first compound 0.000316 µM",48%
same,"viability, T/C","second compound 1 µM, first compound 0.001 µM",49.3%
same,"viability, T/C","second compound 1 µM, first compound 0.00316 µM",50.2%
same,"viability, T/C","second compound 1 µM, first compound 0.01 µM",46.3%
same,"viability, T/C",[9],48.5%
same,"viability, T/C",[10],46.9%
